In patent US20120035187A1 (priority 2009, published 2012):

Columns and labels:
[1] = test system: ICR mice administered with amyloid β fragment; test: Novel object recognition test, mouse administered with amyloid β fragment, agents of Example 1; assay type: in vivo; parameters: key: (novel − memorized seeking time)/(novel + memorized seeking time); conditions: agent of Example 1, 0.3 ml/head intraperitoneally once a day up to the 8th day
Description: One hundred and thirty ICR mice (commercialized by Charles Liver Laboratories Japan Inc., Kanagawa, Japan) were randomly divided into 13 groups, consisting of 10 mice in each group. Amyloid β fragment, represented by an amino acid sequence of SEQ ID NO: 1, used in Experiment 3 was aged at 37° C. for four days, and administered to the lateral ventricle of each mouse in an amount of 9 nmol/6 μl/mouse (the administration method is referred to “Brain Research”, Vol. 706, pp. 181-193 (1996)). […] The mice (10 heads) in the remaining one group were intraperitoneally administered with a sterilized 10% maltose solution (pyrogen-free) once a day up to the 8th day in an amount of 0.3 ml/mouse (control). On the 8th day after the administration, novel object recognition test (see, Japanese Patent Kokai No. 2008-193941) was performed and the average discrimination index (the ratio of prolonged seeking time for novel object to the total seeking time) as a cognitive function index were shown in Table 26. On the 9th day after the administration, the brain of the mice was anatomically isolated, prepared into tissue samples in conventional manner. Depositions of aggregation of amyloid fragment were observed by staining with Congo red or thioflavin T, and degeneration or defect of hippocampal pyramidal cells concerned with cognitive function. The degeneration or the defect of hippocampal pyramidal cells was evaluated by 4-point grade score, by regarding the condition of the control without administration of amyloid β fragment as “none (O)”, “slight (1)”, “moderate (2)”, and “sever (3)”, and the average scores of 10 mice are shown in Table 20.
An experiment apparatus (a glass box of 30 cm in depth, 45 cm in width, and 30 cm in height) and two kinds of objects to be memorized by mice were provided. On the day before the test, the mice were allowed to seek freely in the experiment apparatus with no seeking object for 10 minutes for acclimation. On the test day, the following test was performed twice at an interval of 60 minutes. In the first trial, the same two objects were placed in the apparatus at its both ends, and the mouse was allowed to seek freely for 10 minutes. On the second trial, one of the objects used in the first test was replaced with a different kind of object, and then the mouse was allowed to seek freely for five minutes. In each experiment, when the mouse brought its muffle close to the object within 1-cm apart from the object, or made its muffle or whiskers to contact with the object, the mouse was judged to have a seeking behavior, and the seeking time thereof was measured. The object discrimination index [={(seeking time for novel object)−(seeking time for memorized object)}/{(seeking time of novel object)+(seeking time of memorized object)}] was calculated. The object discrimination index means the ratio of an increased seeking time for novel object to the total seeking time, and the ratio becomes larger when the memory of the once sought object was more strongly held, and it becomes smaller when the memory was more weakly held.

[2] = test system: hamsters with cerebellar ataxia; test: Falling down frequency of hamsters with cerebellar ataxia; assay type: in vivo, hamster; conditions: for Falling down frequency (frequency/min): cerebellar ataxia hamsters, 10-weeks of age; for Falling down frequency (count/min): hamster with cerebellar ataxia, agent of Example 1, 0.5 ml/hamster intraperitoneally once a day for 56 days
Source text: Since NK-4 was confirmed to have a neurodegenerative inhibitory action in Experiment 1, hamsters with cerebellar ataxia (cerebellar ataxia is called “cerebellar A” and hamsters with cerebellar ataxia are called “hamsters with cerebellar A”, hereinafter) as a suitable model for human neurodegenerative diseases (e.g., spinal cerebellar degeneration) were subjected to examine the influence of NK-4 administration on their behaviors and brain tissues. Twenty-five hamsters with natural mutation (Nna1 inhibition), which are known to lose Purkinje's cells after three-weeks of age and then induce a spontaneous onset of kinetic motor ataxia after seven-weeks of age (see Akita K. et al., “J. Neurogenetics”, Vol. 21, pp. 19-29, 2007), had been fed at Hayashibara Biochemical Laboratories., Inc., Okayama, Japan, were randomly allocated to the test groups 1 to 5, five heads in each group, as shown in Table 2. Prior to the onset of cerebellar A (at three-weeks of age), PBS was started to administer to the hamsters in the test group 1 at a dose of 10 ml/kg/day. Prior to the onset of cerebellar A (at three-weeks of age), NK-4 was started to be administered to the hamsters in the test groups 2 to 4 at a daily dose of 20 μg/kg, 100 μg/kg or 500 μg/kg. “IGF-1, human, a product name of insulin-like growth factor, commercialized by Assaypro LLC, MO, USA. These administered ingredients were intraperitoneally administered daily to hamsters once a day up to 10-weeks of age. The degree of symptom of cerebellar A and the improvement effect on the symptom by NK-4 were evaluated with an index of improvement in motor coordination of hamsters by conducting once a week the later described rotarod test and the slant tolerance test. At the age of 10-weeks, the hamsters were subjected to counting the falling down frequency and extracted their brains, which were then histologically evaluated. In parallel, the concentration of glutamic acid in the bloods and cerebrospinal fluids (CSF) of the hamsters was assayed. As a test group 6, five normal hamsters, with the same age as the hamsters with cerebellar A used in the test groups 1 to 5, were provided and tested similarly as the hamsters with cerebellar A in such a manner of intraperitoneally administering PBS to them at a dose of 10 ml/kg/day once a day up to 10-weeks of age.
Hamsters, 10-weeks of age, were respectively housed in a breeding cage. Their falling down frequencies within one minute were counted under a macroscopic observation and the data from five heads in each group were averaged. For reference, the hamsters with cerebellar A used in this experiment are known to increase their falling down frequencies after nine weeks of age.
Similarly as in Experiment 2, 130 hamsters with cerebellar ataxia, born within the same week and 3-weeks of age, were randomly divided into 13 groups, consisting of 10 hamsters, respectively. […] The hamsters (10 heads) in the remaining one group were intraperitoneally administered from their age of 3- to 10-weeks with a sterilized 10% maltose solution (pyrogen-free) in an amount of 0.5 ml/hamster (control) once a day for 56 days At the next day after the end of the administration, body weight of each hamster was weighed, followed by performing rotarod test, slope endurance test, and counting of falling down frequency. The types of compounds applied to each group and the results are in Table 25.

SMILES	Object discrimination index [1]	Falling down frequency (frequency/min) ([2]; 20 μg/kg body weight i.p. once a day)	Falling down frequency (frequency/min) ([2]; 100 μg/kg body weight i.p. once a day)	Falling down frequency (frequency/min) ([2]; 500 μg/kg body weight i.p. once a day)	Falling down frequency (count/min) [2] [count/min]
CCN1C=CC(=CC=C(C=Cc2cc[n+](CC)c3ccccc23)c2cc[n+](CC)c3ccccc23)c2ccccc21.[I-].[I-] [NK-4]	0.1	4.0 ± 1.0	1.6 ± 0.9	1.2 ± 0.8	1.1 ± 0.8
CCCCN1C=C/C(=C/C=C(/C=C/c2cc[n+](CCCC)c3ccccc23)c2cc[n+](CCCC)c3ccccc23)c2ccccc21 [NK-26]	0.1	–	–	–	1.0 ± 0.7
CCCCCCCN1C=CC(=CC=C(C=Cc2cc[n+](CCCCCCC)c3ccccc23)c2cc[n+](CCCCCCC)c3ccccc23)c2ccccc21.[I-].[I-] [NK-28]	0.2	–	–	–	1.3 ± 0.9
CCN1/C(=C/C=C(/C=C/c2sc3ccccc3[n+]2CC)c2sc3ccccc3[n+]2CC)Sc2ccccc21.[I-].[I-] [NK-100]	0.1	–	–	–	1.3 ± 0.7
CCCCCCCCN1C=CC(=CC=C(C=Cc2cc[n+](CCCCCCCC)c3ccccc23)c2cc[n+](CCCCCCCC)c3ccccc23)c2ccccc21.[I-].[I-] [NK-147]	0.2	–	–	–	1.5 ± 0.8
CCCCCCCCCN1C(C)=CS\C1=C/C=C(\C=C\c1scc(C)[n+]1CCCCCCCCC)c1scc(C)[n+]1CCCCCCCCC.[I-].[I-] [NK-393]	0.2	–	–	–	0.9 ± 0.8
CN(C)c1ccc(/C=C/c2oc3ccccc3[n+]2C)cc1 [NK-528]	0.3	–	–	–	5.2 ± 1.4
CC[n+]1ccccc1/C=C/c1ccc(N(C)C)cc1 [NK-557]	0.4	–	–	–	6.5 ± 1.1
COc1ccc2oc(/C=C/c3ccc(N(C)C)cc3)[n+](C)c2c1 [NK-1516]	0.4	–	–	–	7.1 ± 0.8
